We go through two compounds from patent US20110086388A1, “CHAPERONE-ASSISTED PROTEIN EXPRESSION AND METHODS OF USE” (Duke University, priority 2009, published 2011).

Assay [1] has as its system Actinoplanes ATCC 33076 Ramo16, NAD dependent reductase (native protein, no fusion tag). Put plainly: Ramo16 activity assay (continuous spectrophotometric, decrease in NADH absorbance at 340 nm). The format is biochemical. Particulars: pseudo-substrate acetoacetyl-CoA varied 0 to 5 mM; 250 μM NADH fixed; 10 μM Ramo16; 50 mM HEPES, pH 7.6, 100 mM NaCl; 25° C. As for the experimental part: FIG. 8 is a kinetic profile of Ramo16 (10 μM) with varied acetoacetyl-CoA (0 to 5 mM) and fixed NADH (250 μM).
Ramo16, the NAD dependent reductase, was expressed natively in autoinduction media to prevent the formation of insoluble aggregates. Expression in a His6-tagged expression vector led to protein instability and ultimately precipitation.
Cloning and Purification of Ramo16: The ramo16 gene was obtained by PCR amplification from cosmid DNA (OO8CK) from Actinoplanes ATCC 33076 using Herculase Hot Start Polymerase with the following primers: the C-terminal his-tag were Ramo16C-F (5′-GGGAATTCCATATGCGCTTGACCGGCAAGACCCCG-3′), Ramo16C-R (5′-CCCAAGCTTGCGCGTGGTGAATCCGCCGTCGAC-3′, and the N-terminal his-tag were Ramo16N-F (5′-TATACCATGGCTCGCTTGACCGGCAAGAC-3′). and Ramo16N-R (5′-TATAGGATCCTCAGCGCGTGGTGAATCCG-3′). The amplified gene products were cloned into the Zero Blunt Cloning Vector and sequenced. […] Fractions were analyzed by SDS-PAGE and the band corresponding to Ramo16 was excised and the identity of the protein confirmed by Q-TOF. […]
Ramo 16 Activity Assay: Initial rates of Ramo16 were determined by monitoring the decrease in absorbance of NADH at 340 nm at 25° C. The 100 μL reactions were monitored in half-area clear bottom Corning plates using a 96 well plate SpectraMax Molecular Devices spectrophotometer. […]

In assay [2] the test system is vancomycin-resistant Enterococcus faecium (VRE). Particulars: cited from earlier work.
Assay [3] has as its system methicillin-resistant Staphylococcus aureus (MRSA). Particulars: cited from earlier work.

With `CC(=O)CC(=O)SCCNC(=O)CCNC(=O)[C@H](O)C(C)(C)COP(=O)(O)OP(=O)(O)OC[C@H]1O[C@@H](n2cnc3c(N)ncnc32)[C@H](O)[C@@H]1OP(=O)(O)O` [acetoacetyl-Coenzyme A], in assay [1], the Km (in general, the concentration of substrate that gives half-maximal velocity) worked out at 2350 ± 390 µM; the kcat (commonly the number of substrate molecules converted per active site and unit of time at saturation) is 15.7 ± 1.2 s⁻¹.
For the compound ramoplanin A2, the “effectiveness against VRE” value in assay [2] is “highly effective”. In addition, in assay [3], the “effectiveness against MRSA” value is listed as “highly effective”.
